Data reported in patent publication US8926955B2, “Synthesis of polymer conjugates of indolocarbazole compounds” (priority 2008, dated 2015).

Columns and labels:
guinea pig [1] = assay: Photosensitisation test in guinea pigs; type: in vivo
Protocol: The second phase of the study was an assessment of sensitisation, in which a total of 5 groups were treated as follows (Table 7):
The photosensitisation test was undertaken using 2 groups of 10 animals (cf. Table 7, groups 8 and 9) induced with the control item and the test item and 1 control group of 10 animals (cf. Table 7, group 7) induced with the selected vehicle (purified water). In an attempt to induce sensitisation, animals were intradermally injected with an emulsion of Freund's complete adjuvant. The test and control items, at 100% concentration, were applied topically over the area among the injection sites of FCA a total of 6 times over a 2 week period. Animals were exposed to both UVA (10 Joules/cm^2) and UVB (0.1 Joules/cm^2) radiation following dosing. Control group animals were treated in the same manner but the selected vehicle (purified water) was used in place of the test or control items. Approximately 2 weeks after the final induction exposure, all animals were challenged by topical application of both the vehicle and the test or control item at 20% and 50% concentrations, respectively. These concentrations were selected as they were considered non-irritant to the skin in association with ultraviolet irradiation on the basis of the results obtained at the photoirritation test. Animals of the 2 test groups and the control group were exposed to both UVA (10 Joules/cm^2) and UVB (0.1 Joule/cm^2) radiation following dosing. Additional sites on each animal were topically treated with both the vehicle and test or control items, but treatment was not followed by exposure to ultraviolet irradiation. Approximately 24, 48 and 72 hours after challenge exposure the treated sites were examined for evidence of reaction to treatment.
One group of 5 animals (cf. Table 7, group 11) was induced with this substance at a concentration of 15% in acetone. A control group of 3 animals (cf. Table 7, group 10) was treated in the same manner with the vehicle alone (acetone). A concentration of 10% of the reference item (Musk Ambrette) in acetone was selected for the challenge. […]

guinea pig [2] = assay: Photoirritation test in guinea pigs; type: in vivo
Protocol: The potential of the test item 0.1% cream to cause photoallergic and/or photoirritant reactions following topical application to the skin, in association with exposure to ultraviolet light, was assessed using a guinea pig model.
In the first phase, an assessment of the photoirritant properties of the test item was performed in 6 groups of animals. These were used both to establish suitable concentrations of the test item for use in the sensitisation assay and to provide information on photo-induced irritation. Animals were treated as follows (Table 6):
The photoirritation test was undertaken using 2 (irradiated) groups, each of 5 animals, treated with the control and test items, cream placebo and test item 0.1% cream, respectively (cf. Table 6, groups 1 and 3) and 2 similarly constituted groups (cf. Table 6, groups 2 and 4), treated in the same manner but not irradiated. Aliquots of the undiluted test or control item (100%), 2 concentrations (20% and 50% in purified water) of the test and control items and the vehicle alone (purified water), were spread evenly over defined skin sites prepared on the dorsum of the animals. Animals of the irradiated groups (groups 1 and 3) were exposed to both UVA (10 Joules/cm^2) and UVB (0.1 Joules/cm^2) radiation following dosing. […]

[3] = tested on: Chinese hamster ovary cells; assay: Chromosome aberrations in Chinese hamster ovary cells in vitro (photomutagenicity assay); conditions: 3 hours treatment, absence or presence of ultraviolet light
Protocol: The test item was assayed for the ability to cause chromosomal damage in Chinese hamster ovary cells, following in vitro treatment in the absence and presence of UVA/UVB irradiation.
Solutions of the test item were prepared in Hank's Balanced Salt Solution (HBSS).
Both in the absence and presence of UV light, the cells were treated for 3 hours and the harvest time of 20 hours, corresponding to approximately 1.5 cell cycle, was used.
The experiment included appropriate negative and positive controls. Two cell cultures were prepared at each test point.
Dose levels were selected for the scoring of chromosomal aberrations on the basis of the cytotoxicity of the test item treatments as determined by the reduction of cell counts at the time of harvesting.
One hundred metaphase spreads were scored for chromosomal aberrations from each culture.

Balb/c 3T3 cells = type: cell-based; conditions: mouse
Protocol: The potential in vitro phototoxicity of the test item was evaluated by the measurements of neutral red uptake for cellular toxicity on cultures of Balb/c 3T3 cells treated with different doses of the test item and exposed to UVA irradiation. Test item solutions were prepared using Earle's Balanced Salt Solution (EBSS).
A preliminary dose-range finding experiment in the presence (+UVA) and in the absence (−UVA) of light was undertaken in order to select appropriate dose levels for the main assays. The test item was assayed at a maximum dose level of 1000 μg/ml (the upper limit indicated in the study protocol) and at a wide range of lower dose levels: 500, 250, 125, 62.5, 31.3, 15.6 and 7.81 μg/ml. […] In this case the chemical is considered to be non-phototoxic. The same dose range was used for the main assay.
A main experiment was performed using the following dose levels: 1000, 500, 250, 125, 62.5, 31.3, 15.6 and 7.81 μg/ml.

With COc1c(C(C)(C)C)cc([N+](=O)[O-])c(C)c1[N+](=O)[O-] [Musk Ambrette] the response at challenge (guinea pig [1]; group 10, induced with the vehicle) was “No response to the reference item was observed”, the “animals responding at challenge (very slight to slight erythema)” value (guinea pig [1]; group 11 (induced at 15% in acetone), challenge at 10% followed by UV irradiation) was 4/5 and the response at challenge (guinea pig [1]; group 11, sites treated but not irradiated) was “No response to the reference item was observed”.

COc1c2occc2cc2ccc(=O)oc12 [8-Methoxypsoralen] was tested, and the skin reaction (guinea pig [2]; exposed to ultraviolet light, concentrations 0.01% and 0.1%) was “well defined to moderate erythema and a slight oedema”, the skin reaction (guinea pig [2]; without exposure to ultraviolet light) was “No response was seen” and the “cells bearing chromosomal aberrations (including or excluding gaps)” value [3] was “Statistically significant increases”.

With CN(C)CCCN1c2ccccc2Sc2ccc(Cl)cc21 [Chlorpromazine, reference compound] the “Photo Irritation Factor (PIF)” value (Balb/c 3T3 cells) was 21.9.
